Experimental data as given in patent US20260034253A1, “NECTIN-4 MINIPROTEIN CONJUGATES” (Aktis Oncology, Inc., priority 2022, published 2026).
Bridge positions count the residues as written; N and C are the ends. Primed or numbered codes have the meaning given here. * marks the point of attachment. DOTA = O=C(O)CN1CCN(CC(=O)O)CCN(CC(=O)*)CCN(CC(=O)O)CC1; PEG4′ = polyethylene glycol (PEG4) linker; PEG4 = NCCOCCOCCOCCOCCC(=O)O

T1: human Nectin-4 (Homo sapiens, UniProt Q96NY8)
T1 sequence (Q96NY8 32-510): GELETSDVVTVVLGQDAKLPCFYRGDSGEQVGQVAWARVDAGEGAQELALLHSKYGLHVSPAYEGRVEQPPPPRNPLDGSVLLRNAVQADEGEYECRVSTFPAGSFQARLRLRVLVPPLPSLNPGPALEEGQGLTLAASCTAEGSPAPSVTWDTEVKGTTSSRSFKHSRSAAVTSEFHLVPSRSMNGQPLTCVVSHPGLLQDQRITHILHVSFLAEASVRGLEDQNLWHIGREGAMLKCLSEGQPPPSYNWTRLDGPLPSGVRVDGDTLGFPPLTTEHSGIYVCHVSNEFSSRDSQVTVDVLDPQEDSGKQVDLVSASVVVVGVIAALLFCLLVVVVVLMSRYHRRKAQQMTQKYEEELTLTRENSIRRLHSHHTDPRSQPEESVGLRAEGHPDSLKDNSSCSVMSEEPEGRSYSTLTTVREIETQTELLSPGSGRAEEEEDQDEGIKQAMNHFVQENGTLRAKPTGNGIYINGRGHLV

T2: mouse Nectin-4 (Mus musculus, UniProt Q8R007)
T2 sequence (Q8R007 31-508): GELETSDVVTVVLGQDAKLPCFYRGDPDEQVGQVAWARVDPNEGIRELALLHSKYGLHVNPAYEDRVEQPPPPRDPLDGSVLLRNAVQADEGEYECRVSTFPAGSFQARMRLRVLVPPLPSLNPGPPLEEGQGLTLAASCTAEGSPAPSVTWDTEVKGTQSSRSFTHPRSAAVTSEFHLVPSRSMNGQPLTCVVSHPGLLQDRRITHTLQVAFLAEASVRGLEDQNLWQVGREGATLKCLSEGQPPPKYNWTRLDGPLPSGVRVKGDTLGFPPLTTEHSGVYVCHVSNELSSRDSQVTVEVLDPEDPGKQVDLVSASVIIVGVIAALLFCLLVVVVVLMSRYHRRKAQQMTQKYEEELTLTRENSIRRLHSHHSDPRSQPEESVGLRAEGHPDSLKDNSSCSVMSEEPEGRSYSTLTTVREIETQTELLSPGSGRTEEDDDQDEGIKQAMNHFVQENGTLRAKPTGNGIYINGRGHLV

T3: Nectin-4 on HT1376 urothelial cancer cells (UniProt Q96NY8 32-510)
T3 construct: whole, on cells; also called HT1376 cells
T3 sequence (looked up): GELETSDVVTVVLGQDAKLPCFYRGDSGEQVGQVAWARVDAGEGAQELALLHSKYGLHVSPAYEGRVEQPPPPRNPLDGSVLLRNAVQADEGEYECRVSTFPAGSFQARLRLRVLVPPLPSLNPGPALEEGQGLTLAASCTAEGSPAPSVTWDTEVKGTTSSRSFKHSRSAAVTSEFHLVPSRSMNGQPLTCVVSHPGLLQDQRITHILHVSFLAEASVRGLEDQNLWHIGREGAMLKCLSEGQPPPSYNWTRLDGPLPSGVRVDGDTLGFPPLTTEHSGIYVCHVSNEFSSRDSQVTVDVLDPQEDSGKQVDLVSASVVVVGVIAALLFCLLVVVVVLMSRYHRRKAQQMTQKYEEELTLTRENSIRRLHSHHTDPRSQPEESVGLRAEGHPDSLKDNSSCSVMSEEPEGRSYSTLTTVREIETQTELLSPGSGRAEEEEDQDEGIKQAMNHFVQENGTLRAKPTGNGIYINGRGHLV


Legend:
[1] = Plasma pharmacokinetic analysis in Sprague Dawley rats; assay type: in vivo; settings: rat, bolus intravenous injection, read-out: PK DATA (t½ - min)
Protocol: Nine blood collection timepoints are taken from 2-24 hours, processed to plasma with K2EDTA, and are frozen for subsequent bioanalysis. Plasma miniprotein concentrations are measured by LC-MS/MS. Plasma FITC-sinistrin is measured fluorometrically. […] Finally, non-compartmental analysis is performed to estimate plasma pharmacokinetic parameters.
Exemplary pK data for exemplary Nectin-4 miniprotein monomers were tested in vivo (t1/2 mins), showing an average pK for these exemplary compounds.

human Nectin-4 = target: T1, human Nectin-4; assay: Surface plasmon resonance (Biacore T200) binding to human Nectin-4; settings: human Nectin-4, 1:1 binding model, twenty-five degrees Celsius
Protocol: (§1) Peptide binding affinity to the target protein was measured by SPR using a Biacore T200 instrument. The target protein was covalently coupled to a Biacore chip surface using free amine-coupling chemistry (NHS/EDC) and all uncoupled sites were blocked with ethanolamine. Free peptides were flowed over the target protein surface in increasing concentrations to measure association (KA) and dissociation ([…]) to calculate the equilibrium dissociation constant (KD) using an appropriate binding model (see, e.g., Nikolas Stroth, J Biol Methods. 2016; 3 (1)).
(§2) In all figures (FIGS. 1A, 1B, 2A, and 2B), lines on graphs are labeled from top to bottom, beginning with letter “a,” and the corresponding concentration is noted to the right of the figure, next to the letter designating each line.
Surface plasmon resonance (SPR) analyses were performed using Biacore T200 (GE Healthcare). Target protein (“ligand”) was immobilized to a CM5 Series S sensor chip (Cytiva) using amine-coupling chemistry. Running buffer was 0.05% Surfactant P20 in HEPES buffered saline (HBS-P), pH 7.4 (Cytiva). Immobilization was performed at 25° C. Carboxyl groups in each flow cell were activated using a 1:1 mixture of 0.4 M 1-ethyl-3-(3-dimethylaminopropyl)-carbodiimide in water (EDC) and 0.1 M N-hydroxysuccinimide in water (NHS) for 7 minutes. The ligand was prepared in 10 mM Sodium acetate pH 5 (Cytiva). Pulsatile injections were made to target a specific immobilization level. Any remaining amine-reactive esters on the chip surface were blocked with a 7-minute injection of 1 M ethanolamine, pH 8.5. Three 10-second pulses of 50 mM Sodium hydroxide were then made to remove any unbound ligand. Reference cells were modified using amine coupling chemistry, omitting ligand injection.
Increase in signal (RU) is proportional to an increase in binding events between the analyte and ligand surface. The injection was then stopped, and dissociation was measured. The resulting sensorgram has reference surface and blank injection subtracted prior to curve fitting. Measured association (ka, 1/M^s−1) and dissociation (kd, s^−1) were fit to a 1:1 binding model to calculate an equilibrium dissociation constant, KD(M) for each analyte. Equilibrium binding constants (KD) and binding inhibition constants (Ki) estimated from surface plasmon resonance (SPR) or DELFIA® binding assays for exemplary compounds as set forth in Table 2A.
In this example, affinity for mouse Nectin-4 (FIG. 3A) and human Nectin-4 (FIG. 3B) were measured using a 1:1 binding model at twenty-five degrees Celsius. In both of FIGS. 3A and 3B, lines on graphs were labeled from top to bottom, beginning with letter a, and the corresponding concentration was noted to the right of the figure.

mouse Nectin-4 = target: T2, mouse Nectin-4; assay: Surface plasmon resonance (Biacore T200) binding to mouse Nectin-4; settings: 1:1 binding model, twenty-five degrees Celsius
Protocol: as §1, §2
Surface plasmon resonance (SPR) analyses were performed using Biacore T200 (GE Healthcare). Target protein (“ligand”) was immobilized to a CM5 Series S sensor chip (Cytiva) using amine-coupling chemistry. Running buffer was 0.05% Surfactant P20 in HEPES buffered saline (HBS-P), pH 7.4 (Cytiva). Immobilization was performed at 25° C. Carboxyl groups in each flow cell were activated using a 1:1 mixture of 0.4 M 1-ethyl-3-(3-dimethylaminopropyl)-carbodiimide in water (EDC) and 0.1 M N-hydroxysuccinimide in water (NHS) for 7 minutes. The ligand was prepared in 10 mM Sodium acetate pH 5 (Cytiva). Pulsatile injections were made to target a specific immobilization level. Any remaining amine-reactive esters on the chip surface were blocked with a 7-minute injection of 1 M ethanolamine, pH 8.5. […]
Increase in signal (RU) is proportional to an increase in binding events between the analyte and ligand surface. The injection was then stopped, and dissociation was measured. […] Measured association (ka, 1/M^s−1) and dissociation (kd, s^−1) were fit to a 1:1 binding model to calculate an equilibrium dissociation constant, KD(M) for each analyte. […]
In this example, affinity for mouse Nectin-4 (FIG. 3A) and human Nectin-4 (FIG. 3B) were measured using a 1:1 binding model at twenty-five degrees Celsius. […]

[2] = target: T3, Nectin-4 on HT1376 urothelial cancer …; assay: saturation radioligand binding (Lu-177) on HT1376 cells, 4 C, gamma counting
Protocol: Radioligand binding was performed in HT1376 urothelial cancer cells by method of saturation. Cells were seeded at 20,000 cells per well in 96-well format 48 hours prior to assay. Lutetium-177-labeled radioconjugates of C215 and C117 were incubated with cells at 4 deg C. for 1 h at various increasing concentrations of radioligand. At the end of incubation cells were washed three times with PBS and radioactivity was quantified by gamma counting as shown in Table 3.

Kd [2] [nM]	Molecule	half-life [1] [min]	further results
–	CC[C@H](C)[C@@H]1NC(=O)[C@H](CC(=O)O)NC(=O)CNC(=O)CNC(=O)[C@H](CCCNC(=N)N)NC(=O)[C@H](CC(C)C)NC(=O)[C@H](CCCNC(=N)N)NC(=O)[C@H](CCCCN)NC(=O)[C@H](CC(C)C)NC(=O)[C@H](C)NC(=O)[C@H]([C@@H](C)O)NC(=O)[C@H](Cc2ccccc2)NC(=O)[C@H](Cc2ccccc2)NC(=O)[C@H](CCC(=O)O)NC(=O)[C@H](CCC(=O)O)NC(=O)[C@H](CC(=O)O)NC(=O)[C@H](Cc2ccc(O)cc2)NC(=O)[C@H](CCC(=O)O)NC(=O)[C@@H](NC(=O)CCOCCOCCOCCOCCNC(=O)CN2CCN(CC(=O)O)CCN(CC(=O)O)CCN(CC(=O)O)CC2)CSSC[C@@H]2NC(=O)[C@H](CC(C)C)NC(=O)[C@H](CCCCNC(C)=O)NC(=O)[C@@H]3CCCN3C(=O)[C@H](C(C)C)NC(=O)[C@H](CCCCNC(C)=O)NC(=O)[C@H](CCCCNC(C)=O)NC(=O)[C@H](Cc3ccccc3)NC(=O)[C@H](CCCCNC(C)=O)NC(=O)[C@H](CCCCNC(C)=O)NC(=O)[C@H](CCCCNC(C)=O)NC(=O)[C@H]([C@@H](C)CC)NC(=O)[C@H](Cc3ccc(O)cc3)NC(=O)[C@H](Cc3ccc(O)cc3)NC(=O)[C@H](CSSC[C@@H](C(N)=O)NC(=O)CNC(=O)[C@H](CC(C)C)NC(=O)[C@H](CCCCN)NC(=O)[C@H](CC(=O)O)NC(=O)[C@H](CC(C)C)NC(=O)[C@H]([C@@H](C)CC)NC(=O)[C@H](CCC(=O)O)NC(=O)[C@H](CCC(=O)O)NC(=O)[C@H]([C@@H](C)CC)NC2=O)NC1=O [Compound C216]	31.4	–
–	{DOTA-PEG4}-CEYDEEFFAGLKRLRGGDICYYIKKKFDKVPDLCIEEILDKLGC-OH (disulfide 1-34, 20-44) [Compound C91]	–	kd (dissociation) (human Nectin-4): 0.02966 s⁻¹; kd (dissociation) (mouse Nectin-4): 0.02817 s⁻¹
–	CC[C@H](C)[C@@H]1NC(=O)[C@H](CC(=O)O)NC(=O)CNC(=O)CNC(=O)[C@H](CCCNC(N)=O)NC(=O)[C@H](CC(C)C)NC(=O)[C@H](CCCNC(N)=O)NC(=O)[C@H](CCCCNC(C)=O)NC(=O)[C@H](CC(C)C)NC(=O)[C@H](C)NC(=O)[C@H]([C@@H](C)O)NC(=O)[C@H](Cc2ccccc2)NC(=O)[C@H](Cc2ccccc2)NC(=O)[C@H](CCC(=O)O)NC(=O)[C@H](CCC(=O)O)NC(=O)[C@H](CC(=O)O)NC(=O)[C@H](Cc2ccc(O)cc2)NC(=O)[C@H](CCC(=O)O)NC(=O)[C@@H](NC(=O)CCOCCOCCOCCOCCNC(=O)CN2CCN(CC(=O)O)CCN(CC(=O)O)CCN(CC(=O)O)CC2)CSSC[C@@H]2NC(=O)[C@H](CC(C)C)NC(=O)[C@H](CCCCN)NC(=O)[C@@H]3CCCN3C(=O)[C@H](C(C)C)NC(=O)[C@H](CCCCN)NC(=O)[C@H](CCCCN)NC(=O)[C@H](Cc3ccccc3)NC(=O)[C@H](CCCCN)NC(=O)[C@H](CCCCN)NC(=O)[C@H](CCCCN)NC(=O)[C@H]([C@@H](C)CC)NC(=O)[C@H](Cc3ccc(O)cc3)NC(=O)[C@H](Cc3ccc(O)cc3)NC(=O)[C@H](CSSC[C@@H](C(N)=O)NC(=O)CNC(=O)[C@H](CC(C)C)NC(=O)[C@H](CCCCNC(C)=O)NC(=O)[C@H](CC(=O)O)NC(=O)[C@H](CC(C)C)NC(=O)[C@H]([C@@H](C)CC)NC(=O)[C@H](CCC(=O)O)NC(=O)[C@H](CCC(=O)O)NC(=O)[C@H]([C@@H](C)CC)NC2=O)NC1=O [Compound C217]	31.4	–
4.24	{DOTA-PEG4′}-CEYDEEFFTALKRLRGGDICYYIKKKFKKVPKLCIEEILDKLGC-OH (designed binder, disulfide 1-34, 20-44; also: DOTA labeled with lutetium-177) [Lutetium-177-labeled radioconjugate of C215]	–	–
0.89	{DOTA-PEG4′}-CEYDEEFFTALKRLRGGDICYYIQAKFQYLPKLCIEEILDNLGCS-OH (designed binder, disulfide 1-34, 20-44; also: DOTA labeled with lutetium-177) [Lutetium-177-labeled radioconjugate of C117]	–	–
